Data from ChEMBL document CHEMBL1201862, “PubChem BioAssay data set” (2004).
“And” between values parts separate entries of the source, which are not always exact repeats. Equal entries are not always repeated. One block for each molecule: values may come before it. The source made the active and inactive calls.

Experiments:
[1] = HEp-2 cell cytotoxicity, dose response, cytotoxicity control for RSV inhibitor project, HTS (AID 2410); type: functional; conditions: human respiratory syncytial virus
[2] = target: Beta-2 adrenergic receptor (Homo sapiens, UniProt P07550); experiment: beta2AR agonists driving receptor internalization, dose response, cell-based, FAP fluorogen, flow cytometry, cherry pick 1 (AID 588763); type: functional
[3] = HepG2 cell cytotoxicity, dose response, cytotoxicity control, cherry-picked samples (AID 1159577); type: functional, cell-based
[4] = P. falciparum Dd2 growth inhibitors, dose response, SYBR Green, cherry-picked samples (AID 1159567); type: functional, cell-based
[5] = cytotoxicity in HEK-293T cells, dose response, cytotoxicity control for TCR NF-kB inhibitor project, luminescence, T-cell screen hits (AID 489026); type: functional, cell-based;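 also: cells exposed to compound about 14 hours before the viability readout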
[6] = target: T1, High affinity choline transporter 1 (Homo sapiens, UniProt Q9GZV3); experiment: CHT inhibitors, dose response, cell-based, 10-point CRC, membrane potential dye (AID 588401); type: functional;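 also: membrane potential dye fluorescence of choline-evoked depolarization via CHT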
T1 sequence (Q9GZV3 whole entry): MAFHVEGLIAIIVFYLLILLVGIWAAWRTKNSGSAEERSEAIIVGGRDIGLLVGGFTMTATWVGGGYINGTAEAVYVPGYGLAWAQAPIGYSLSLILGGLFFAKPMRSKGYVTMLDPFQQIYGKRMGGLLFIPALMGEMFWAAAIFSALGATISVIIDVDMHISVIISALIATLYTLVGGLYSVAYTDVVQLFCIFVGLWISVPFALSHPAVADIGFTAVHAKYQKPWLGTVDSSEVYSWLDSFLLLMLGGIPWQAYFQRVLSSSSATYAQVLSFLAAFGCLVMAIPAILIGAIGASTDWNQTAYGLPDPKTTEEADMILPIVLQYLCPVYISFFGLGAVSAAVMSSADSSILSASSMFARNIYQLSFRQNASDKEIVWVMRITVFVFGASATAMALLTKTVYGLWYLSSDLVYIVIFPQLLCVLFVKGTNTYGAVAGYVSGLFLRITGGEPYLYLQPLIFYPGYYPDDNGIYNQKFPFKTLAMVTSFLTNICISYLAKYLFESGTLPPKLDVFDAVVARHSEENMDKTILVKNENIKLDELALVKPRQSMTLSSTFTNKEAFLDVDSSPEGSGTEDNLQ

[7] = target: T1, High affinity choline transporter 1; experiment: CHT inhibitors, dose response, cell-based, 5-point CRC, membrane potential dye (AID 504840); type: functional
[8] = target: T2, Calpain-2 catalytic subunit (Sus scrofa, UniProt P43367); experiment: pig calpain II inhibitor potency, dose response, biochemical, fluorogenic peptide substrate (AID 1420); type: functional
T2 sequence (P43367 whole entry): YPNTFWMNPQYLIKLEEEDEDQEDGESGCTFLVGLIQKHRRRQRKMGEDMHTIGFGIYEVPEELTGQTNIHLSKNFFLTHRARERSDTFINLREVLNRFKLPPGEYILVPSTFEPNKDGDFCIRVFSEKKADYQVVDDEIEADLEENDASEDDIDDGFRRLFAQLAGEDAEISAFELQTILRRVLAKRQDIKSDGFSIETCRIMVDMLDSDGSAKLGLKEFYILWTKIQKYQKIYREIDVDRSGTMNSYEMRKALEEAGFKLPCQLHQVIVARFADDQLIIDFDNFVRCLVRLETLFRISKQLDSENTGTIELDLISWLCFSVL

[9] = target: T3, DNA repair protein RAD52 homolog (Homo sapiens, UniProt P43351); type: functional, biochemical
T3 sequence (P43351 whole entry): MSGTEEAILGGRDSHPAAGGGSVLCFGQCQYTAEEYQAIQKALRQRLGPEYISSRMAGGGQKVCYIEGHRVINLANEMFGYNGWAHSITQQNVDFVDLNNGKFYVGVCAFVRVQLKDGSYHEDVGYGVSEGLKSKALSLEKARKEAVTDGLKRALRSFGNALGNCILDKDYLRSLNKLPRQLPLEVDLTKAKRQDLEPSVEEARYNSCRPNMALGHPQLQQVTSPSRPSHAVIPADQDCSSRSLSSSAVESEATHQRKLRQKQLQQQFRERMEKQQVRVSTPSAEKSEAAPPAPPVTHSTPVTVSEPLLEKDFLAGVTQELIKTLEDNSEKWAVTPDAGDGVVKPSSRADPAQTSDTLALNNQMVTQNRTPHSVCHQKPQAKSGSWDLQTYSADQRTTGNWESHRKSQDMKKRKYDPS

Paired box protein Pax-8 = Paired box protein Pax-8 (Homo sapiens, UniProt Q06710); experiment: inhibitors of PAX8-driven TPO luciferase reporter, dose response, RMG-I cells, cherry-pick (AID 687027); type: functional, cell-based;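 also: luciferase reporter driven by Pax8 target thyroperoxidase promoter measured by SteadyGlo luminescence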
[10] = non-specific cell cytotoxicity, dose response, cytotoxicity control for PAX8 inhibitor project, plate reader, dry powder samples (AID 743021); type: functional, cell-based
[11] = ZM109 Env clade C HIV-1 fusion inhibitors, dose response, HeLa effector, CEM target cells, luciferase, cherry-pick (AID 652058); type: functional, cell-based
[12] = inhibitors of HIV Env-driven cell fusion, dose response, cherry-pick (AID 652057); type: functional, cell-based
[13] = off-target signal loss in HeLa-CEM21 co-culture – HeLa F-luc CTL cells, cherry-picked, counter-screen for HIV-1 Env fusion inhibitor project, dose response (AID 652040); type: functional, cell-based;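 also: potency for signal decrease marking cytotoxic or nonspecific inhibition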
[14] = inhibitors of clade B AD8 Env fusion, dose response, cell-based, cherry-pick (AID 652062); type: functional;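 also: luciferase signal from cell-cell fusion driven by HIV-1 clade B AD8 Env; potency is for inhibitors of fusion seen as a drop in luminescence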

Beta-2 adrenergic receptor, sequence (P07550 whole entry): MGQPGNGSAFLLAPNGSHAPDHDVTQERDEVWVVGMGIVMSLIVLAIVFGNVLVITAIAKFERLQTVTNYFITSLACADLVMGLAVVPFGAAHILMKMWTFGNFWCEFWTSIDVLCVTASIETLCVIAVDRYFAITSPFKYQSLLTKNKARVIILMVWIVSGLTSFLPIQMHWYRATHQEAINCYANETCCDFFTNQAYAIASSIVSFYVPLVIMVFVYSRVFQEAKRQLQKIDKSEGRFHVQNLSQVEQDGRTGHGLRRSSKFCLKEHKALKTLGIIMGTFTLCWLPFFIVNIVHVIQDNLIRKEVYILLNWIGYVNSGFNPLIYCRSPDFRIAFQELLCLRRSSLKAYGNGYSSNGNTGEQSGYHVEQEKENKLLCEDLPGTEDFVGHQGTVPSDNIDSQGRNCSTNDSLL
Paired box protein Pax-8, sequence (Q06710 whole entry): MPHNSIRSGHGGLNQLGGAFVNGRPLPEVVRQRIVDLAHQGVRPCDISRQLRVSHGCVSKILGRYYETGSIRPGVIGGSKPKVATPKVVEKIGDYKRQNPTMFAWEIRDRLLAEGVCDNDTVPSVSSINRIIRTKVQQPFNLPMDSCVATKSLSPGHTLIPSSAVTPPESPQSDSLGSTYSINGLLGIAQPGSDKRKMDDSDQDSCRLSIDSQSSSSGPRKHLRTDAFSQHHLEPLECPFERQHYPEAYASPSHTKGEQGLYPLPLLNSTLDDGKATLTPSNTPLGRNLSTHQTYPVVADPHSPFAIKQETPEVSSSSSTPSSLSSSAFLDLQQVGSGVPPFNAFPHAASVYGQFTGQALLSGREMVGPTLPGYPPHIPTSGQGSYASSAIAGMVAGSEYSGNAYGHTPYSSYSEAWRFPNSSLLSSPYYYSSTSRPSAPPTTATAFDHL

Structure (SMILES): COc1cccc(S(=O)(=O)Nc2ccc3c(c2)[C@@H]2C[C@H](CC(=O)NCc4ccccc4F)O[C@@H](CO)[C@@H]2O3)c1
AC50 [3]: > 39 µM (inactive) | AC50 [4]: 5.32 µM (active)

Structure (SMILES): Oc1cc(-c2ccccc2)nc2cc(F)ccc12
IC50 [5]: > 80 µM (inactive)

Structure (SMILES): c1cn(C23CC4CC(CC(C4)C2)C3)cn1
IC50 [6]: 3.57 µM (active) | IC50 [7]: 7.43 µM (active)

Structure (SMILES): OC[C@@H]1[C@H](c2ccc(C3=CCCCC3)cc2)[C@@H](CNC2CCCC2)N1CC1CC1
AC50 [3]: 21.9 µM (active) | AC50 [4]: 1.61 µM (active)

Structure (SMILES): O=C(Cc1ccccn1)N1CCCCN2[C@@H](CO)[C@@H](c3ccc(-c4ccccc4F)cc3)[C@@H]2C1
AC50 (Paired box protein Pax-8): 57 µM (active) | AC50 [10]: 46.2 µM (active)

Structure (SMILES): COC(=O)C1(C(=O)OC)C[C@H](c2ccc(OC)cc2)N(Cc2ccccc2OC)[C@@H]1c1cccs1
AC50 [11]: 4.03 µM (active) and 2.19 µM (active) | AC50 [12]: 2.05 µM (active) and 2.55 µM (active) | AC50 [13]: 4.05 µM (active) and 2.64 µM (active)

Structure (SMILES): COC(=O)Cn1ccc(N(C)C)c(C#N)c1=O
IC50 [6]: 2.89 µM (active) | IC50 [7]: 4.07 µM (active)

Structure (SMILES): Nc1cc(-c2ccccc2)nn1S(=O)(=O)c1ccc(F)cc1
AC50 [12]: 59.6 µM (active) | AC50 [14]: 3.99 µM (active) | AC50 [13]: 3.4 µM (active)

Structure (SMILES): COc1ccc(C(=O)c2ccc(N(C)C)cc2)c(OC)c1
IC50 [5]: > 80 µM (inactive)

Now from value to molecule, other results behind:

EC50 [2]: 16.9 µM (inactive)
Structure (SMILES): O=C(Nc1cccc(-c2nc3ccccc3s2)c1)c1cccs1
CC50 [1]: 15.4 µM (active)

IC50 [8]: > 50 µM (not active) | EC50 [2]: 0.402 µM (active)
Structure (SMILES): CC(=O)Nc1cc(C(=O)OC(C(=O)c2ccccc2)c2ccccc2)ccc1C (configuration not stated)

AC50 [9]: 16.5 µM (active)
Structure (SMILES): C=CC[N@@+]12CC[C@]34c5ccccc5N5/C=C6\C7N(/C=C(\C53)[C@@H](C[C@@H]41)/C(=C/CO)C2)c1ccccc1[C@@]71CC[N@@+]2(CC=C)C/C(=C\CO)[C@@H]6C[C@@H]12 (some centres not stated)

IC50 [6]: 4.22 µM (active) | IC50 [7]: 6.99 µM (active)
Structure (SMILES): Cn1c2c(c(=O)c3ccccc31)CCCC2

EC50 [2]: 4.36 µM (active)
Structure (SMILES): COc1ccc([C@H]2/C=C\CN(Cc3ccc(N(C)C)cc3)[C@@H](C)C(=O)N2Cc2ccc(F)cc2)cc1

EC50 [2]: 0.0417 µM (active)
Structure (SMILES): COCCCNc1ncnc2c1sc1nc(-c3ccco3)c3c(c12)CC(C)(C)OC3
